From patent US7582674B2, “Nutraceutical compositions and use thereof” (DSM IP Assets B.V., priority 2003, dated 2009) come the findings set out here.

Test [1] deals with murine macrophages RAW264.7. As to the kind of experiment: Inhibition of NO (nitrite, Griess reaction) production in LPS-stimulated macrophages. Type of test: cell-based. The protocol:
(§1) In order to induce an in vitro ‘inflammatory response’, murine macrophages RAW264.7 were seeded into microtiter plates or 12-well plates and stimulated with lipopolysaccharide (LPS) without or with graded amounts of the test substances. Vehicle concentrations (i.e. DMSO) were kept constant. Culture supernatants were harvested after appropriate periods of time (4 to 24 hours). Prostaglandin E2 (PGE2) and nitrite produced from nitric oxide (NO) secreted into the culture medium were quantified by ELISA and the Griess reaction, respectively. The percentage of inhibition of PGE2 or NO production at a given concentration of the test substances (compared to maximal production by LPS-stimulated cells) was calculated.

Test [2] concerns murine macrophages RAW264.7. The test can be described thus: Inhibition of PGE2 (ELISA) production in LPS-stimulated macrophages. Conditions: combination = actually determined inhibition. The class given is cell-based. As to the method: as §1

`CCC=CCC=CCC=CCC=CCC=CCCCC(=O)O` [EPA, 5,8,11,14,17-eicosapentaenoic acid] gave an inhibition at 12.5 µM in test [1] (Mus musculus, RAW264.7, Table 2, LPS stimulated macrophages, EPA 12.5 μM) of 12.9%.
Consider `Oc1ccc(C=Cc2cc(O)cc(O)c2)cc1` [Resveratrol, resveratrol], for which the inhibition at 10 µM in test [1] (Mus musculus, RAW264.7, Table 1, LPS-stimulated macrophages, each substance at 10 μM, combination = actually determined inhibition) was 8.3%; in test [2] (Mus musculus, RAW264.7, Table 1, each substance at 10 μM) it was 26.8%. Also, the inhibition at 2 µM in test [1] (Mus musculus, RAW264.7, Table 2, LPS stimulated macrophages, Resveratrol 2 μM) was 10%.
With (−)-Epigallocatechin gallate [EGCG], the “% inhibition NO” value in test [1] (Table 1, LPS-stimulated macrophages, each substance at 10 μM, combination = actually determined inhibition) was 4.4%. In test [2] (Table 1, each substance at 10 μM), the “% inhibition PGE2” value is recorded as 1.8%.
